In ChEMBL document CHEMBL5649169 (ChemMedChem, 2018):

Experiments:
[1] = target: Ephrin type-B receptor 6 (Homo sapiens) (UniProt O15197)
[2] = target: Actin-related protein 2 (Homo sapiens) (UniProt P61160)
[3] = target: Activin receptor type-2B (Homo sapiens) (UniProt Q13705)
[4] = target: AP-1 complex subunit mu-1 (Homo sapiens) (UniProt Q9BXS5)
[5] = target: Serine-protein kinase ATM (Homo sapiens) (UniProt Q13315)
[6] = target: ATP synthase peripheral stalk subunit b, mitochondrial (Homo sapiens) (UniProt P24539)
[7] = target: Calcium-binding protein 39 (Homo sapiens) (UniProt Q9Y376)
[8] = target: Calmodulin-1 (Homo sapiens) (UniProt P0DP23)
[9] = target: Calpain-1 catalytic subunit (Homo sapiens) (UniProt P07384)
[10] = target: Cyclin-dependent kinase 5 (Homo sapiens) (UniProt Q00535)
[11] = target: Cyclin-dependent kinase 9 (Homo sapiens) (UniProt P50750)
[12] = target: MICOS complex subunit MIC19 (Homo sapiens) (UniProt Q9NX63)
Chain of MICOS complex subunit MIC19 (Homo sapiens) (Q9NX63 whole entry, one chain of several): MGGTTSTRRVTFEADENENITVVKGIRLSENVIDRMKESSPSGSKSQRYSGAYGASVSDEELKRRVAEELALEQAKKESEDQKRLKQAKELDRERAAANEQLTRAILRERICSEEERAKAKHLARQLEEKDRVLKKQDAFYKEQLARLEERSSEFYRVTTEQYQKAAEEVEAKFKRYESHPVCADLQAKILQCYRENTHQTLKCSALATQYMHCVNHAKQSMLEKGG

[13] = target: Cytochrome c oxidase subunit 5A, mitochondrial (Homo sapiens) (UniProt P20674)
Chain of Cytochrome c oxidase subunit 5A, mitochondrial (Homo sapiens) (P20674 whole entry, canonical isoform): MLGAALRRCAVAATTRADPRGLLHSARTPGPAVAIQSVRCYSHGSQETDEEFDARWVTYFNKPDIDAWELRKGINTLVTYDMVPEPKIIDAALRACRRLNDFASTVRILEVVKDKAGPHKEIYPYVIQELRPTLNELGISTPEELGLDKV

[14] = target: Casein kinase I isoform delta (Homo sapiens) (UniProt P48730)
[15] = target: Cathepsin B (Homo sapiens) (UniProt P07858)
[16] = target: Protein diaphanous homolog 1 (Homo sapiens) (UniProt O60610)
Chain of Protein diaphanous homolog 1 (Homo sapiens) (O60610 whole entry): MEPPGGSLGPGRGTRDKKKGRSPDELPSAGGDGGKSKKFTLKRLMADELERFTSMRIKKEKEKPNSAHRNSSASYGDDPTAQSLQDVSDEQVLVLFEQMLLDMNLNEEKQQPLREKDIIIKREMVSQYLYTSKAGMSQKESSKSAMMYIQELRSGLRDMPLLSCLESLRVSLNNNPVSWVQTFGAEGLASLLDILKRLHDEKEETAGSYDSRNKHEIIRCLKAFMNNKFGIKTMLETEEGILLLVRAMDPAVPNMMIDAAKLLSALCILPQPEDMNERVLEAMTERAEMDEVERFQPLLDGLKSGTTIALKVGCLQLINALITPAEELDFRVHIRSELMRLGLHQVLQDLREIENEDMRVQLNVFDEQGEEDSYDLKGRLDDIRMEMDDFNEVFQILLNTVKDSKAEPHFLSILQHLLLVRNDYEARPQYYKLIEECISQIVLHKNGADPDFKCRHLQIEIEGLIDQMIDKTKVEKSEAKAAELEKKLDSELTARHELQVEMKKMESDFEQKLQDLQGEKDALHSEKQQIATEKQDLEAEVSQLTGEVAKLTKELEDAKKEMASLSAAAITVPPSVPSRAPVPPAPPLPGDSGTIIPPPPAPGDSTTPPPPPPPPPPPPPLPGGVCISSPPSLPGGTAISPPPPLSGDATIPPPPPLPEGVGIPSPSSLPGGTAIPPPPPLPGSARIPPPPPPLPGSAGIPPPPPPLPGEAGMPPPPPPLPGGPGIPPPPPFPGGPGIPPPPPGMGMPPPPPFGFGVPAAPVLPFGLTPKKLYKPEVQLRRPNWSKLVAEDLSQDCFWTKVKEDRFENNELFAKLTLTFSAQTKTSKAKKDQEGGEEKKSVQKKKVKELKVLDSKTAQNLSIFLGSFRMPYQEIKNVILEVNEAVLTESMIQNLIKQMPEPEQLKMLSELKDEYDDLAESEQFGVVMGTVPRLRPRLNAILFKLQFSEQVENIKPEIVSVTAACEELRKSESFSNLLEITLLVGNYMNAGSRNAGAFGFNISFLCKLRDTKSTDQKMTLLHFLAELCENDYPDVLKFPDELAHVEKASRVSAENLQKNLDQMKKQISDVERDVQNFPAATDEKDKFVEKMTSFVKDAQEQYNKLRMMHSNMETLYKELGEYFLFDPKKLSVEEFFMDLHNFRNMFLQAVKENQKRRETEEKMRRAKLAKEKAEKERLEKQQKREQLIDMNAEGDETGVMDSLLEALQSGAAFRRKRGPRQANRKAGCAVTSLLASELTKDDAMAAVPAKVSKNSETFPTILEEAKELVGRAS

[17] = target: Fanconi anemia group D2 protein (Homo sapiens) (UniProt Q9BXW9)
[18] = target: Acidic fibroblast growth factor intracellular-binding protein (Homo sapiens) (UniProt O43427)
Fascin (Homo sapiens) = Fascin (Homo sapiens) (UniProt Q16658)
[19] = target: High mobility group protein B2 (Homo sapiens) (UniProt P26583)
[20] = target: Stress-70 protein, mitochondrial (Homo sapiens) (UniProt P38646)
[21] = target: Ras GTPase-activating-like protein IQGAP1 (Homo sapiens) (UniProt P46940)
Lamin-B1 (Homo sapiens) = Lamin-B1 (Homo sapiens) (UniProt P20700)
Chain of Lamin-B1 (Homo sapiens) (P20700 whole entry): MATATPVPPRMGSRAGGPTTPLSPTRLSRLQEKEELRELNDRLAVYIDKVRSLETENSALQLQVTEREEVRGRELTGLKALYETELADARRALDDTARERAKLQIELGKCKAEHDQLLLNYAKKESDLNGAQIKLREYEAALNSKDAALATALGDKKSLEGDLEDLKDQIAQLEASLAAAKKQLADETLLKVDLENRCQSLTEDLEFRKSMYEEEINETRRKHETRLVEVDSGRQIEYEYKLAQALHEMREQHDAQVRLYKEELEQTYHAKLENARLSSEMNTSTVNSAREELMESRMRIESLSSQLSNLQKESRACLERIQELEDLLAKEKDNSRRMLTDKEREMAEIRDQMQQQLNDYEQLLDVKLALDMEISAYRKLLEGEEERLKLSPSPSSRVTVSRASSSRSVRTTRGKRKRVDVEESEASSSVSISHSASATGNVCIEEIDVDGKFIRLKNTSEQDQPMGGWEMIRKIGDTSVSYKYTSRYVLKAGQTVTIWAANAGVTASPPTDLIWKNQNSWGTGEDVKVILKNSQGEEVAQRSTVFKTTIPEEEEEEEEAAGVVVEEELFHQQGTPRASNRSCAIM

[22] = target: ER lumen protein-retaining receptor 2 (Homo sapiens) (UniProt P33947)
Chain of ER lumen protein-retaining receptor 2 (Homo sapiens) (P33947 whole entry): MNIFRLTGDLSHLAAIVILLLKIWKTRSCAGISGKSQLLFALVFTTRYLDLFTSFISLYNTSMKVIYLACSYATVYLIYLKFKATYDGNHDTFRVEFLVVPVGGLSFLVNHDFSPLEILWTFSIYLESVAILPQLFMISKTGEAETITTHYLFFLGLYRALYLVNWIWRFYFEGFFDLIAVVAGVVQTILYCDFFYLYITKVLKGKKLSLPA

[23] = target: Tyrosine-protein kinase Lck (Homo sapiens) (UniProt P06239)
[24] = target: Mitogen-activated protein kinase kinase kinase 3 (Homo sapiens) (UniProt Q99759)
Chain of Mitogen-activated protein kinase kinase kinase 3 (Homo sapiens) (Q99759 whole entry): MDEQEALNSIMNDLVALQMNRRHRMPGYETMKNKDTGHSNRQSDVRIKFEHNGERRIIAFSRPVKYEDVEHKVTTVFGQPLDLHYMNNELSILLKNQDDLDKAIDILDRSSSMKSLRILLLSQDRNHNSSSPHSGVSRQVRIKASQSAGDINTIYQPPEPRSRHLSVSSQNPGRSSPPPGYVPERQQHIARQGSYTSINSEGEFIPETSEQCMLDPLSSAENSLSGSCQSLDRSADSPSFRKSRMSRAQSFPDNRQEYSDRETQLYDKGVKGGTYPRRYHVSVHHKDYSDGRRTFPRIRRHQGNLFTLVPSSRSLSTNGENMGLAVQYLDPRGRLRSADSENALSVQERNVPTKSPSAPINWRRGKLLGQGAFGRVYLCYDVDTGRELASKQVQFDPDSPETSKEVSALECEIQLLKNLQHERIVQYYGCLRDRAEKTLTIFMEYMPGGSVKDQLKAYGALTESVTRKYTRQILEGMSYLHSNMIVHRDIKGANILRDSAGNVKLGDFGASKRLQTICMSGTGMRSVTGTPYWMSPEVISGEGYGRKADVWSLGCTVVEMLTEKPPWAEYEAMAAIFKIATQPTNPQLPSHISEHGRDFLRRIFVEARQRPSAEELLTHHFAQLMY

[25] = target: Mitogen-activated protein kinase kinase kinase 4 (Homo sapiens) (UniProt Q9Y6R4)
[26] = target: Mitogen-activated protein kinase 14 (Homo sapiens) (UniProt Q16539)
[27] = target: DNA replication licensing factor MCM2 (Homo sapiens) (UniProt P49736)
[28] = target: Mediator of RNA polymerase II transcription subunit 23 (Homo sapiens) (UniProt Q9ULK4)
[29] = target: RNA cytidine acetyltransferase (Homo sapiens) (UniProt Q9H0A0)
[30] = target: RNA cytosine C(5)-methyltransferase NSUN2 (Homo sapiens) (UniProt Q08J23)
Chain of RNA cytosine C(5)-methyltransferase NSUN2 (Homo sapiens) (Q08J23 whole entry): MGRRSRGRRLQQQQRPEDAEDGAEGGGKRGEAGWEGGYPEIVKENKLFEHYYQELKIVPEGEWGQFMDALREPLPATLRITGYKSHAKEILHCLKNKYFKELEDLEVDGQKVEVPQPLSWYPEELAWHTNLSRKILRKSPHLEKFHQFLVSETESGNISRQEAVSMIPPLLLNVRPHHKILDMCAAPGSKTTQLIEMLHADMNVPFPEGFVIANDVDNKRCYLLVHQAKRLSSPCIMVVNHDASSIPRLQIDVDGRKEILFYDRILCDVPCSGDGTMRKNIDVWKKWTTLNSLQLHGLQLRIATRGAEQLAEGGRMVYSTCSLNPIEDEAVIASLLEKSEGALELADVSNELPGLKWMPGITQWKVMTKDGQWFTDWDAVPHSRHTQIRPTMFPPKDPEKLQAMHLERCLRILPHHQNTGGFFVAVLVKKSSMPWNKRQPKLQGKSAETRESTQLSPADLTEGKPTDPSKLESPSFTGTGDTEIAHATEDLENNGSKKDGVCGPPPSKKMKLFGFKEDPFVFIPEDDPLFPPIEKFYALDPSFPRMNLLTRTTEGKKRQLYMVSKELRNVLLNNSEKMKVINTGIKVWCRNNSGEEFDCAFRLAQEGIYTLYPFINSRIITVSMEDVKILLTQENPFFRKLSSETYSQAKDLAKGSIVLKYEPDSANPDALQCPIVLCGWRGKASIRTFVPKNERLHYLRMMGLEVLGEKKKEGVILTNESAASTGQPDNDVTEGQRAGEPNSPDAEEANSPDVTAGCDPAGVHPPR

[31] = target: Phosphatidylinositol 4-kinase alpha (Homo sapiens) (UniProt P42356)
[32] = target: Serine/threonine-protein kinase N2 (Homo sapiens) (UniProt Q16513)
[33] = target: Ribosomal protein S6 kinase alpha-6 (Homo sapiens) (UniProt Q9UK32)
[34] = target: Protein S100-A6 (Homo sapiens) (UniProt P06703)
[35] = target: Vesicle-trafficking protein SEC22b (Homo sapiens) (UniProt O75396)
Chain of Vesicle-trafficking protein SEC22b (Homo sapiens) (O75396 whole entry): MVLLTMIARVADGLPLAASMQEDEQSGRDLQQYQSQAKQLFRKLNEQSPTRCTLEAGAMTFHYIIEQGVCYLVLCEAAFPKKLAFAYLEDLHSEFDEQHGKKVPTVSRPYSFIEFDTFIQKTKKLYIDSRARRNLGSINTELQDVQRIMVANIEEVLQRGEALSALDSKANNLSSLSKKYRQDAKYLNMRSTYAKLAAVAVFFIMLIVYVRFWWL

[36] = target: Monocarboxylate transporter 4 (Homo sapiens) (UniProt O15427)
[37] = target: Tricarboxylate transport protein, mitochondrial (Homo sapiens) (UniProt P53007)
[38] = target: DNA topoisomerase 1 (Homo sapiens) (UniProt P11387)
[39] = target: Thioredoxin (Homo sapiens) (UniProt P10599)
[40] = target: Non-receptor tyrosine-protein kinase TYK2 (Homo sapiens) (UniProt P29597)
[41] = target: Ubiquitin-associated protein 2 (Homo sapiens) (UniProt Q5T6F2)
[42] = target: Cytochrome b-c1 complex subunit 2, mitochondrial (Homo sapiens) (UniProt P22695)
Chain of Cytochrome b-c1 complex subunit 2, mitochondrial (Homo sapiens) (P22695 whole entry, one chain of several): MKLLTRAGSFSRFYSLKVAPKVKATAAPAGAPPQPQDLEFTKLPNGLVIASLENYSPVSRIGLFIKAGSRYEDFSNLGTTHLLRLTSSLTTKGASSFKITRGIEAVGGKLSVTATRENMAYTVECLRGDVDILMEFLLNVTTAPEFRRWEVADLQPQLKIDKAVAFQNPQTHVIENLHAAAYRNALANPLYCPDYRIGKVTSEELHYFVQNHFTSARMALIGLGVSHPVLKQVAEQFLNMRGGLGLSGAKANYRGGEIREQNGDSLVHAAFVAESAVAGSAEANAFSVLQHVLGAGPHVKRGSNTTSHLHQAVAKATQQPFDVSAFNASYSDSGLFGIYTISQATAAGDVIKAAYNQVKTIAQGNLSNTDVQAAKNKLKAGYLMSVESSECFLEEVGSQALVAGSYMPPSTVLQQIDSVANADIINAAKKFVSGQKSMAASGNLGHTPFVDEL

[43] = target: Protein VAC14 homolog (Homo sapiens) (UniProt Q08AM6)
[44] = target: 14-3-3 protein theta (Homo sapiens) (UniProt P27348)
Note: assay method not described here.

Chain of AP-1 complex subunit mu-1 (Homo sapiens) (Q9BXS5 whole entry, one chain of several): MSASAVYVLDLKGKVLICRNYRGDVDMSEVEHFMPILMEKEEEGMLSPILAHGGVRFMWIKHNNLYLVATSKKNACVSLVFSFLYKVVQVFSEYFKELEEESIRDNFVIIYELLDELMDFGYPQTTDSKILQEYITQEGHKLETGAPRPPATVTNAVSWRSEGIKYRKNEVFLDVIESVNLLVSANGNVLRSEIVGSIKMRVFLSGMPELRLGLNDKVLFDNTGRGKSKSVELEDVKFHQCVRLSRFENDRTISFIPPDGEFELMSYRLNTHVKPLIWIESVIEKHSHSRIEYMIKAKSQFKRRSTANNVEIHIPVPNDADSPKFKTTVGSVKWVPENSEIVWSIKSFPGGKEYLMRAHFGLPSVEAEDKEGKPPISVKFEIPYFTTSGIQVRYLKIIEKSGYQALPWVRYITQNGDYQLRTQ

With `Cc1ccc(C(=O)Nc2cccc(C(F)(F)F)c2)cc1Nc1nc(-c2cccnc2)nc2nn(C)cc12` as the compound, how does the ED50 [1] read?
The ED50 was 6.14 µM.

And the ED50 [2]?
The ED50 was 17 µM.

What about the ED50 [3] of the same compound?
Its ED50 is 4.53 nM.

What about the ED50 [4] of the same compound?
Its ED50 is 91.4 nM.

And the ED50 [5]?
Its ED50 is 0.00199 mM.

And the ED50 [6]?
The ED50 was 0.0113 µM.

And the ED50 [7]?
The ED50 was 7.82 nM.

And the ED50 [8]?
The ED50 was 213 nM.

What about the ED50 [9] of the same compound?
The ED50 was 161 nM.

What about the ED50 [10] of the same compound?
Its ED50 is 17.2 µM.

And the ED50 [11]?
The ED50 was 135 nM.

And the ED50 [12]?
Its ED50 is 14.4 nM.

And the ED50 [13]?
The ED50 was 3.25 mM.

And the ED50 [14]?
Its ED50 is 0.0638 µM.

What about the ED50 [15] of the same compound?
Its ED50 is 18.1 µM.

And the ED50 [16]?
Its ED50 is 1440 nM.

What about the ED50 [17] of the same compound?
Its ED50 is 2280 nM.

What about the ED50 [18] of the same compound?
Its ED50 is 30.1 nM.

What about the ED50 (Fascin (Homo sapiens)) of the same compound?
Its ED50 is 348 nM.

And the ED50 (Homo sapiens)?
The ED50 was 1.33 µM.

What about the ED50 [19] of the same compound?
Its ED50 is 0.0527 µM.

What about the ED50 [20] of the same compound?
The ED50 was 30.8 nM.

And the ED50 [21]?
Its ED50 is 35.4 nM.

What about the ED50 (Lamin-B1 (Homo sapiens)) of the same compound?
The ED50 was 0.42 µM.

And the ED50 [22]?
The ED50 was 51 nM.

What about the ED50 [23] of the same compound?
The ED50 was 7.84 µM.

And the ED50 [24]?
The ED50 was 0.0358 µM.

And the ED50 [25]?
The ED50 was 0.05 µM.

And the ED50 [26]?
Its ED50 is 18.2 µM.

What about the ED50 [27] of the same compound?
Its ED50 is 2.4 nM.

And the ED50 [28]?
The ED50 was 4.73 µM.

What about the ED50 [29] of the same compound?
Its ED50 is 235 nM.

What about the ED50 [30] of the same compound?
Its ED50 is 0.000187 µM.

And the ED50 [31]?
The ED50 was 50.1 µM.

And the ED50 [32]?
The ED50 was 50.6 nM.

What about the ED50 [33] of the same compound?
The ED50 was 20.4 mM.

And the ED50 [34]?
Its ED50 is 11.5 µM.

What about the ED50 [35] of the same compound?
Its ED50 is 3.32 µM.

And the ED50 [36]?
The ED50 was 2.74 µM.

And the ED50 [37]?
Its ED50 is 4.79 µM.

And the ED50 [38]?
Its ED50 is 6.53 nM.

What about the ED50 [39] of the same compound?
Its ED50 is 11.4 µM.

What about the ED50 [40] of the same compound?
The ED50 was 1.13 µM.

And the ED50 [41]?
The ED50 was 4.5 µM.

What about the ED50 [42] of the same compound?
Its ED50 is 6.16 nM.

What about the ED50 [43] of the same compound?
Its ED50 is 3840 nM.

What about the ED50 [44] of the same compound?
Its ED50 is 1350 nM.

What does the source list for `Cc1ccc(C(=O)Nc2cccc(C(F)(F)F)c2)cc1Nc1nc(-c2cccnc2)nc2c1cnn2C`?
ED50 [1]: 0.364 µM; ED50 [2]: 0.174 µM; ED50 [3]: 4770 nM; ED50 [4]: 55.2 nM; ED50 [5]: 8.68 mM; ED50 [6]: 11.5 µM; ED50 [7]: 157 nM; ED50 [8]: 110 nM; ED50 [9]: 3520 nM; ED50 [10]: 5.06 µM; ED50 [11]: 4600 nM; ED50 [12]: 27.1 nM; ED50 [13]: 0.00362 mM; ED50 [14]: 10.4 µM; ED50 [15]: 60.4 µM; ED50 [16]: 5.21 nM; ED50 [17]: 1960 nM; ED50 [18]: 3140 nM; ED50 (Fascin (Homo sapiens)): 18.6 nM; ED50 (Homo sapiens): 11.6 µM; ED50 [19]: 11.3 µM; ED50 [20]: 31.4 nM; ED50 [21]: 4700 nM; ED50 (Lamin-B1 (Homo sapiens)): 13.8 µM; ED50 [22]: 109 nM; ED50 [23]: 1.36 µM; ED50 [24]: 12.1 µM; ED50 [25]: 7.94 µM; ED50 [26]: 1 µM; ED50 [27]: 3390 nM; ED50 [28]: 4.89 µM; ED50 [29]: 0.302 nM; ED50 [30]: 48.7 µM; ED50 [31]: 18.6 µM; ED50 [32]: 96.9 nM; ED50 [33]: 0.000735 mM; ED50 [34]: 0.118 µM; ED50 [35]: 103 µM; ED50 [36]: 4.22 µM; ED50 [37]: 4.38 µM; ED50 [38]: 42.5 nM; ED50 [39]: 13.1 µM; ED50 [40]: 69.7 µM; ED50 [41]: 111 µM; ED50 [42]: 5.84 nM; ED50 [43]: 648 nM; ED50 [44]: 21.1 nM
